From patent publication US8952024B2, “Herbicidal pyrimidone derivatives” (E I du Pont de Nemours and Company, priority 2009, dated 2015)

Columns and labels:
Assay in all cases: Test D pre-/postemergence plant response
Assay type in all cases: in vivo
[1] = test system: nutsedge (purple nutsedge, Cyperus rotundus)
Outline: (§1)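 Scores (0 no effect, 100 complete control) reflect visual assessment against untreated plants after 14 to 21 days. Treatments were pre- and postemergence sprays in solvent with surfactant.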

[2] = test system: chickweed (common chickweed, Stellaria media); conditions: Postemergence
Outline: as §1

[3] = test system: morningglory (pitted morningglory, Ipomoea lacunosa)
Outline: as §1

[4] = test system: johnsongrass (Sorghum halepense)
Outline: as §1

[5] = test system: bluegrass (annual bluegrass, Poa annua)
Outline: as §1

[6] = test system: goosegrass (Eleusine indica)
Outline: as §1

[7] = test system: spanishneedles (Bidens bipinnata)
Outline: as §1

[8] = test system: large crabgrass (Digitaria sanguinalis)
Outline: as §1

[9] = test system: Surinam grass (Brachiaria decumbens)
Outline: as §1

kochia (Kochia scoparia) = test system: kochia (Kochia scoparia)
Outline: as §1

[10] = test system: field bindweed (Convolvulus arvensis)
Outline: as §1

[11] = test system: naked crabgrass (Digitaria nuda)
Outline: as §1

[12] = test system: groundsel (common groundsel, Senecio vulgaris); conditions: Postemergence
Outline: as §1

[13] = test system: purslane (common purslane, Portulaca oleracea)
Outline: as §1

[14] = test system: Italian ryegrass (Lolium multiflorum)
Outline: as §1

[15] = Postemergence, 16 g ai/ha, scale 0 to 100
[16] = Postemergence, 31 g ai/ha, scale 0 to 100
[17] = Postemergence, 125 g ai/ha, scale 0 to 100 (0 no effect, 100 complete control)
[18] = Postemergence, 62 g ai/ha, scale 0 to 100 (0 no effect, 100 complete control)
[19] = Preemergence, 16 g ai/ha, scale 0 to 100, 0 no effect, 100 complete control
[20] = Preemergence, 31 g ai/ha, scale 0 to 100 (0 no effect, 100 complete control)
[21] = Preemergence, 62 g ai/ha, scale 0 to 100
[22] = Preemergence, 125 g ai/ha, scale 0 to 100
[23] = 125 g ai/ha, scale 0 to 100 (0 no effect, 100 complete control)
[24] = 62 g ai/ha, scale 0 to 100 (0 no effect, 100 complete control)
[25] = Preemergence, rate not given, scale 0 to 100, 0 no effect, 100 complete control

O=C1CCCC(O)=C1C(=O)c1cnc(-c2ccccc2)n(C2CCCCC2)c1=O [Compound 128, 3-cyclohexyl-5-[(2-hydroxy-6-oxo-1-cyclohexen-1-yl)carbonyl]-2-phenyl-4(3H)-pyrimidinone]
Plant response rating, Nutsedge, Purple [1, 15]: 0 | Plant response rating, Nutsedge, Purple [1, 16]: 10 | Plant response rating, Nutsedge, Purple [1, 17]: 50 | Plant response rating, Nutsedge, Purple [1, 18]: 35 | Plant response rating, Nutsedge, Purple [1, 19]: 0 | Plant response rating, Nutsedge, Purple [1, 20]: 0 | Plant response rating, Nutsedge, Purple [1, 21]: 0 | Plant response rating, Nutsedge, Purple [1, 22]: 70 | Plant response rating, Chickweed ([2]; 16 g ai/ha, scale 0 to 100): 60 | Plant response rating, Chickweed [2, 23]: 70 | Plant response rating, Chickweed [2, 24]: 65 | Plant response rating, Morningglory [3, 15]: 65 | Plant response rating, Morningglory [3, 16]: 65 | Plant response rating, Morningglory [3, 17]: 70 | Plant response rating, Morningglory [3, 18]: 70 | Plant response rating, Morningglory [3, 20]: 0 | Plant response rating, Morningglory [3, 21]: 0 | Plant response rating, Morningglory [3, 22]: 90 | Plant response rating, Johnsongrass [4, 15]: 35 | Plant response rating, Johnsongrass [4, 16]: 40 | Plant response rating, Johnsongrass [4, 17]: 65 | Plant response rating, Johnsongrass [4, 18]: 50 | Plant response rating, Johnsongrass [4, 19]: 0 | Plant response rating, Johnsongrass [4, 20]: 0 | Plant response rating, Johnsongrass [4, 21]: 15 | Plant response rating, Johnsongrass [4, 22]: 65 | Plant response rating, Bluegrass [5, 15]: 0 | Plant response rating, Bluegrass ([5]; Postemergence, 31 g ai/ha, scale 0 to 100 (0 no effect, 100 complete control)): 0 | Plant response rating, Bluegrass [5, 17]: 0 | Plant response rating, Bluegrass [5, 18]: 0 | Plant response rating, Bluegrass [5, 19]: 0 | Plant response rating, Bluegrass [5, 20]: 0 | Plant response rating, Bluegrass [5, 21]: 25 | Plant response rating, Bluegrass [5, 22]: 25 | Plant response rating, Goosegrass [6, 15]: 35 | Plant response rating, Goosegrass [6, 16]: 40 | Plant response rating, Goosegrass [6, 17]: 70 | Plant response rating, Goosegrass [6, 18]: 65 | Plant response rating, Goosegrass [6, 19]: 0 | Plant response rating, Goosegrass [6, 20]: 5 | Plant response rating, Goosegrass [6, 21]: 65 | Plant response rating, Goosegrass [6, 22]: 90 | Plant response rating, Spanishneedles [7, 15]: 35 | Plant response rating, Spanishneedles [7, 16]: 50 | Plant response rating, Spanishneedles [7, 17]: 65 | Plant response rating, Spanishneedles [7, 18]: 50 | Plant response rating, Spanishneedles [7, 19]: 0 | Plant response rating, Spanishneedles [7, 20]: 0 | Plant response rating, Spanishneedles [7, 22]: 100 | Plant response rating, Spanishneedles [7, 25]: 90 | Plant response rating, Crabgrass, Large [8, 15]: 40 | Plant response rating, Crabgrass, Large [8, 16]: 50 | Plant response rating, Crabgrass, Large [8, 17]: 70 | Plant response rating, Crabgrass, Large [8, 18]: 60 | Plant response rating, Crabgrass, Large [8, 19]: 0 | Plant response rating, Crabgrass, Large [8, 20]: 25 | Plant response rating, Crabgrass, Large [8, 21]: 60 | Plant response rating, Surinam Grass [9, 16]: 25 | Plant response rating, Surinam Grass [9, 17]: 50 | Plant response rating, Surinam Grass [9, 18]: 30 | Plant response rating, Surinam Grass [9, 19]: 0 | Plant response rating, Surinam Grass [9, 20]: 35 | Plant response rating, Surinam Grass [9, 22]: 90 | Plant response rating, Surinam Grass [9, 25]: 80 | Plant response rating, Kochia (kochia (Kochia scoparia); [15]): 20 | Plant response rating, Kochia (kochia (Kochia scoparia); [16]): 30 | Plant response rating, Kochia (kochia (Kochia scoparia); [17]): 40 | Plant response rating, Kochia (kochia (Kochia scoparia); [18]): 30 | Plant response rating, Kochia (kochia (Kochia scoparia); [19]): 0 | Plant response rating, Kochia (kochia (Kochia scoparia); [20]): 0 | Plant response rating, Kochia (kochia (Kochia scoparia); [21]): 50 | Plant response rating, Kochia (kochia (Kochia scoparia); [22]): 50 | Plant response rating, Field Bindweed [10, 15]: 50 | Plant response rating, Field Bindweed [10, 16]: 50 | Plant response rating, Field Bindweed [10, 17]: 65 | Plant response rating, Field Bindweed [10, 18]: 65 | Plant response rating, Field Bindweed [10, 19]: 0 | Plant response rating, Field Bindweed [10, 20]: 0 | Plant response rating, Field Bindweed [10, 21]: 35 | Plant response rating, Field Bindweed [10, 22]: 98 | Plant response rating, Crabgrass, Naked [11, 15]: 35 | Plant response rating, Crabgrass, Naked [11, 16]: 65 | Plant response rating, Crabgrass, Naked [11, 17]: 75 | Plant response rating, Crabgrass, Naked [11, 18]: 70 | Plant response rating, Crabgrass, Naked [11, 19]: 0 | Plant response rating, Crabgrass, Naked [11, 20]: 0 | Plant response rating, Crabgrass, Naked [11, 21]: 0 | Plant response rating, Crabgrass, Naked [11, 22]: 75 | Plant response rating, Groundsel ([12]; 16 g ai/ha, scale 0 to 100): 100 | Plant response rating, Groundsel ([12]; 31 g ai/ha, scale 0 to 100): 100 | Plant response rating, Groundsel [12, 23]: 100 | Plant response rating, Groundsel [12, 24]: 100 | Plant response rating, Purslane [13, 15]: 30 | Plant response rating, Purslane [13, 16]: 30 | Plant response rating, Purslane [13, 17]: 50 | Plant response rating, Purslane [13, 18]: 30 | Plant response rating, Purslane [13, 19]: 0 | Plant response rating, Purslane [13, 20]: 0 | Plant response rating, Purslane [13, 21]: 100 | Plant response rating, Purslane [13, 22]: 100 | Plant response rating, Ryegrass, Italian [14, 15]: 0 | Plant response rating, Ryegrass, Italian [14, 16]: 0 | Plant response rating, Ryegrass, Italian [14, 17]: 5 | Plant response rating, Ryegrass, Italian [14, 18]: 0 | Plant response rating, Ryegrass, Italian [14, 19]: 0 | Plant response rating, Ryegrass, Italian [14, 20]: 0 | Plant response rating, Ryegrass, Italian [14, 22]: 0 | Plant response rating, Ryegrass, Italian [14, 25]: 0
